In brackets after ≈: the same amount, converted by molar mass. Where two headings read alike, the source gives them in different places. Starred links: 1 amine or outer side, 2 acyl side, 3 side chain; linkers in the order of their positions; H or OH if unused. Positions of bridges follow the written chain, without caps; N, C: chain ends. Residues, ends and D or L forms follow the SMILES beside them. *: point of attachment. C20 diacid = O=C(O)CCCCCCCCCCCCCCCCCCC(=O)*; γGlu = O=C(O)[C@H](CCC(=O)[*:2])N[*:1]
Assays:
[1] = molecular target: T1, human calcitonin receptor (Homo sapiens, UniProt P30988); experiment: Assay (II)a functional CRE-luciferase assay, human calcitonin receptor; format: cell-based; settings: Table 7; human calcitonin (CTa) receptor
T1 construct: expressed in transfected cells; host or cells: BHK570
T1 sequence (P30988 25-474): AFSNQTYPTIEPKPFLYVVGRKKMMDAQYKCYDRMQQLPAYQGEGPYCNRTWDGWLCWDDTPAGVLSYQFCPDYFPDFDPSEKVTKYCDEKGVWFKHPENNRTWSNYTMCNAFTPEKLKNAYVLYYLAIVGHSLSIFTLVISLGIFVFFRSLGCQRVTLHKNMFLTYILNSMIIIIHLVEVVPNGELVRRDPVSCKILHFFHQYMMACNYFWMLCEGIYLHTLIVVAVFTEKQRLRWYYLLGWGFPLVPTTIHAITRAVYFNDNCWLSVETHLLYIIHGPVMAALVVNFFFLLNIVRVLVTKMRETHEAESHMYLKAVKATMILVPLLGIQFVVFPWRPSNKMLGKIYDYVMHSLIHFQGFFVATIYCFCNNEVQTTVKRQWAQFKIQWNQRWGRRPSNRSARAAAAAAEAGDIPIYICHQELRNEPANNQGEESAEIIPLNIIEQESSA

[2] = Assay (III) ThT fibrillation assay for physical stability; format: physicochemical
Summary of the method: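 Freshly prepared formulations, pH-adjusted, with 1 μM ThT; four or eight replicates incubated at 37 °C under 960 rpm orbital shaking. Fluorescence (ex 444/em 485 nm) read every 20 min; […]. Peptide concentration measured by RP-HPLC before and after the run.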

[3] = Assay (IV) determination of solubility; format: physicochemical
Summary of the method: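 Eight 100 mM buffers (glycylglycine pH 3.0–5.0, bistrispropane pH 6.0–8.0) each received an equal volume of polypeptide dissolved in water at ~500 nmol/ml. Soluble polypeptide was measured by HPLC following 18 hours at room temperature and centrifugation.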

[4] = molecular target: T2, human amylin receptor (amylin 3(a) receptor: human calcitonin receptor + RAMP-3) (Homo sapiens, UniProt O60896+P30988); experiment: Assay (II)a functional CRE-luciferase assay, human amylin receptor; format: cell-based; settings: Table 2; BHK amylin 3(a)-receptor/CRE-luc cells
T2 construct: expressed in transfected cells; host or cells: BHK570
T2 sequence (P30988 25-474): T1 sequence (P30988 25-474)
T2 sequence (O60896 24-148 partner): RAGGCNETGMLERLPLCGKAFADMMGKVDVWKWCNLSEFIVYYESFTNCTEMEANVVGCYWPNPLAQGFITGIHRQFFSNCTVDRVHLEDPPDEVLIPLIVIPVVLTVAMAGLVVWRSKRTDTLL

[5] = bistrispropane buffer, pH 6, pH 6.0, read-out: Solubility pH 6.0
[6] = bistrispropane buffer, pH 6.5, pH 6.5, read-out: Solubility pH 6.5
[7] = bistrispropane buffer, pH 7, pH 7.0, 18 hours at room temperature, Table 3, read-out: Solubility pH 7.0
[8] = bistrispropane buffer, pH 7, pH 7.0, Table 8, read-out: Solubility pH 7.0
[9] = bistrispropane buffer, pH 7, pH 7.0, Table 9, read-out: Solubility pH 7.0
[10] = bistrispropane buffer, pH 7, pH 7.0, read-out: Solubility pH 7.0
[11] = bistrispropane buffer, pH 7.5, pH 7.5, Table 9, read-out: Solubility pH 7.5
[12] = bistrispropane buffer, pH 7.5, pH 7.5, read-out: Solubility pH 7.5
[13] = bistrispropane buffer, pH 8, pH 8.0, read-out: Solubility pH 8.0
[14] = glycylglycine buffer, pH 3, pH 3.0, read-out: Solubility pH 3.0
[15] = glycylglycine buffer, pH 4, pH 4.0, 18 hours at room temperature, Table 2, read-out: Solubility pH 4.0
[16] = glycylglycine buffer, pH 4, pH 4.0, read-out: Solubility pH 4.0
[17] = glycylglycine buffer, pH 5, pH 5.0, read-out: Solubility pH 5.0

SMILES | EC50 [1] | ThT pH 4.0 lag time ([2]; Table 8) | ThT pH 4.0 lag time ([2]; Table 9) | ThT pH 4.0 lag time ([2]; ThT fibrillation assay) | ThT pH 4.0 lag time (h) ([2]; ThT fibrillation assay) | solubility at 18 h [3, 5] | solubility at 18 h [3, 6] | solubility at 18 h [3, 7] | solubility at 18 h [3, 8] | solubility at 18 h [3, 9] | solubility at 18 h [3, 10] | solubility at 18 h [3, 11] | solubility at 18 h [3, 12] | solubility at 18 h [3, 13] | solubility at 18 h [3, 14] | solubility at 18 h [3, 15] | solubility at 18 h [3, 16] | solubility at 18 h [3, 17] | EC50 [4]
CC[C@H](C)[C@H](NC(=O)[C@@H]1CCCN1C(=O)CNC(=O)[C@H](Cc1ccccc1)NC(=O)[C@H](CC(N)=O)NC(=O)[C@H](CC(N)=O)NC(=O)[C@H](CO)NC(=O)[C@H](CO)NC(=O)[C@H](Cc1c[nH]cn1)NC(=O)[C@H](Cc1c[nH]cn1)NC(=O)[C@H](CC(C)C)NC(=O)[C@H](Cc1ccccc1)NC(=O)[C@H](CCC(=O)O)NC(=O)[C@H](C)NC(=O)[C@H](CC(C)C)NC(=O)[C@H](CCCNC(=N)N)NC(=O)[C@H](CCC(N)=O)NC(=O)[C@@H](NC(=O)[C@H](C)NC(=O)[C@@H]1CSSC[C@H](NC(=O)[C@H](CCCCN)NC(=O)CC[C@H](NC(=O)CCCCCCCCCCCCCCCCCCC(=O)O)C(=O)O)C(=O)N[C@@H](CC(N)=O)C(=O)N[C@@H]([C@@H](C)O)C(=O)N[C@@H](C)C(=O)N[C@@H]([C@@H](C)O)C(=O)N1)[C@@H](C)O)C(=O)N[C@@H](CC(C)C)C(=O)N1CCC[C@H]1C(=O)N1CCC[C@H]1C(=O)N[C@H](C(=O)N[C@@H](CC(N)=O)C(=O)N[C@H](C(=O)NCC(=O)N[C@@H](CO)C(=O)N[C@@H](CCC(N)=O)C(=O)N[C@H](C(=O)N1CCC[C@H]1C(N)=O)[C@@H](C)O)C(C)C)[C@@H](C)O [Example 135, N-alpha-[(S)-4-Carboxy-4-(19-carboxynonadecanoylamino)butyryl]-[Glu14,His17,Gln35,Pro37]-pramlintide] ({C20 diacid-γGlu}-KCNTATCATQRLAEFLHHSSNNFGPILPPTNVGSQTP-NH2; disulfide 2-7 (inferred)) | 0.097 nM | >45 h | >45 h | >45 h | >45 h | > 200 µM | > 200 µM | > 200 µM | > 200 µM | > 200 µM | > 200 µM | > 200 µM | > 200 µM | > 200 µM | > 200 µM | > 200 µM | > 200 µM | > 200 µM | 0.103 nM
CC[C@H](C)[C@H](NC(=O)[C@@H]1CCCN1C(=O)CNC(=O)[C@H](Cc1ccccc1)NC(=O)[C@H](CC(N)=O)NC(=O)[C@H](CCC(N)=O)NC(=O)[C@H](CO)NC(=O)[C@H](CO)NC(=O)[C@H](Cc1c[nH]cn1)NC(=O)[C@H](Cc1c[nH]cn1)NC(=O)[C@H](CC(C)C)NC(=O)[C@H](Cc1ccccc1)NC(=O)[C@H](CCC(=O)O)NC(=O)[C@H](C)NC(=O)[C@H](CC(C)C)NC(=O)[C@H](CCCNC(=N)N)NC(=O)[C@H](CCC(N)=O)NC(=O)[C@@H](NC(=O)[C@H](C)NC(=O)[C@@H]1CSSC[C@H](NC(=O)[C@H](CCCCN)NC(=O)CC[C@H](NC(=O)CCCCCCCCCCCCCCCCCCC(=O)O)C(=O)O)C(=O)N[C@@H](CC(N)=O)C(=O)N[C@@H]([C@@H](C)O)C(=O)N[C@@H](C)C(=O)N[C@@H]([C@@H](C)O)C(=O)N1)[C@@H](C)O)C(=O)N[C@@H](CC(C)C)C(=O)N1CCC[C@H]1C(=O)N1CCC[C@H]1C(=O)N[C@H](C(=O)N[C@@H](CC(N)=O)C(=O)N[C@H](C(=O)NCC(=O)N[C@@H](CO)C(=O)N[C@@H](CCC(N)=O)C(=O)N[C@H](C(=O)N1CCC[C@H]1C(N)=O)[C@@H](C)O)C(C)C)[C@@H](C)O [Example 136, N-alpha-[(S)-4-Carboxy-4-(19-carboxynonadecanoylamino)butyryl]-[Glu14,His17,Gln21,Gln35,Pro37]-pramlintide] ({C20 diacid-γGlu}-KCNTATCATQRLAEFLHHSSQNFGPILPPTNVGSQTP-NH2; disulfide 2-7 (inferred)) | 0.045 nM | >45 h | >45 h | >45 h | >45 h | > 200 µM | > 200 µM | > 200 µM | > 200 µM | > 200 µM | > 200 µM | > 200 µM | > 200 µM | > 200 µM | > 200 µM | > 200 µM | > 200 µM | > 200 µM | 0.091 nM
CC[C@H](C)[C@H](NC(=O)[C@@H]1CCCN1C(=O)CNC(=O)[C@H](Cc1ccccc1)NC(=O)[C@H](CC(N)=O)NC(=O)[C@H](CCC(N)=O)NC(=O)[C@H](CO)NC(=O)[C@H](CO)NC(=O)[C@H](Cc1c[nH]cn1)NC(=O)[C@H](Cc1c[nH]cn1)NC(=O)[C@H](CC(C)C)NC(=O)[C@H](Cc1ccccc1)NC(=O)[C@H](CCC(=O)O)NC(=O)[C@H](C)NC(=O)[C@H](CC(C)C)NC(=O)[C@H](CCCNC(=N)N)NC(=O)[C@H](CCC(N)=O)NC(=O)[C@@H](NC(=O)[C@H](C)NC(=O)[C@@H]1CSSC[C@H](NC(=O)CNC(=O)CC[C@H](NC(=O)CCCCCCCCCCCCCCCCCCC(=O)O)C(=O)O)C(=O)N[C@@H](CC(N)=O)C(=O)N[C@@H]([C@@H](C)O)C(=O)N[C@@H](C)C(=O)N[C@@H]([C@@H](C)O)C(=O)N1)[C@@H](C)O)C(=O)N[C@@H](CC(C)C)C(=O)N1CCC[C@H]1C(=O)N1CCC[C@H]1C(=O)N[C@H](C(=O)N[C@@H](CC(N)=O)C(=O)N[C@H](C(=O)NCC(=O)N[C@@H](CO)C(=O)N[C@@H](CCC(N)=O)C(=O)N[C@H](C(=O)N1CCC[C@H]1C(N)=O)[C@@H](C)O)C(C)C)[C@@H](C)O [Example 137, N-alpha-[(S)-4-Carboxy-4-(19-carboxynonadecanoylamino)butyryl]-[Gly1,Glu14,His17,Gln21,Gln35,Pro37]-pramlintide] ({C20 diacid-γGlu}-GCNTATCATQRLAEFLHHSSQNFGPILPPTNVGSQTP-NH2; disulfide 2-7) | 0.072 nM | 29 h |  | 29 h | 29 h | 192 µM (≈ 835 µg/mL) | > 200 µM | > 200 µM | > 200 µM |  | > 200 µM |  | > 200 µM | > 200 µM | > 200 µM | > 200 µM | > 200 µM | > 200 µM | 0.121 nM
CC[C@H](C)[C@H](NC(=O)[C@@H]1CCCN1C(=O)CNC(=O)[C@H](Cc1ccccc1)NC(=O)[C@H](CC(N)=O)NC(=O)[C@H](CCC(N)=O)NC(=O)[C@H](CO)NC(=O)[C@H](CO)NC(=O)[C@H](Cc1c[nH]cn1)NC(=O)[C@@H](NC(=O)[C@H](CC(C)C)NC(=O)[C@H](Cc1ccccc1)NC(=O)[C@H](CCC(=O)O)NC(=O)[C@H](C)NC(=O)[C@H](CC(C)C)NC(=O)[C@H](CCCNC(=N)N)NC(=O)[C@H](CCC(N)=O)NC(=O)[C@@H](NC(=O)[C@H](C)NC(=O)[C@@H]1CSSC[C@H](NC(=O)[C@H](CCC(=O)O)NC(=O)CC[C@H](NC(=O)CCCCCCCCCCCCCCCCCCC(=O)O)C(=O)O)C(=O)N[C@@H](CC(N)=O)C(=O)N[C@@H]([C@@H](C)O)C(=O)N[C@@H](C)C(=O)N[C@@H]([C@@H](C)O)C(=O)N1)[C@@H](C)O)C(C)C)C(=O)N[C@@H](CC(C)C)C(=O)N1CCC[C@H]1C(=O)N1CCC[C@H]1C(=O)N[C@H](C(=O)N[C@@H](CC(N)=O)C(=O)N[C@H](C(=O)NCC(=O)N[C@@H](CO)C(=O)N[C@@H](CCC(N)=O)C(=O)N[C@H](C(=O)N1CCC[C@H]1C(N)=O)[C@@H](C)O)C(C)C)[C@@H](C)O [Example 138, N-alpha-[(S)-4-Carboxy-4-(19-carboxynonadecanoylamino)butyryl]-[Glu1,Glu14,Gln21,Gln35,Pro37]-pramlintide] ({C20 diacid-γGlu}-ECNTATCATQRLAEFLVHSSQNFGPILPPTNVGSQTP-NH2; disulfide 2-7) | 0.496 nM |  |  |  | 1.3 h | > 200 µM | > 200 µM | > 200 µM |  |  | > 200 µM |  | > 200 µM | > 200 µM | > 200 µM | > 200 µM | > 200 µM | > 200 µM | 1.51 nM

Source: US8722849B2, “Polypeptides” (Novo Nordisk A/S, priority 2011, dated 2014)
